# Patent US20200390718A1, “METHODS AND COMPOSITIONS FOR […]-VIRAL TRANSFER VECTOR IMMUNE RESPONSE” (Selecta Biosciences, Inc., priority 2019, published 2020)
# Tested on: AAV8-SEAP
# Assay: Serum SEAP expression after AAV8-SEAP injections
# Format: in vivo, C57BL/6 female mice
# Details: after the second boost at d140 (FIG. 2A) or d147 (FIG. 2B); AAV8-SEAP 1×10^10 VG
# Method: Three groups of C57BL/6 female mice (6 mice each) were injected (r.o.) on days 0 and 56 with 1×10^10 VG of AAV8-SEAP without any nanoparticles (one group) or with ImmTOR™ at 100 μg of rapamycin (synthetic nanocarriers comprising rapamycin, such as those produced in Example 1; two groups). Of the […] two groups, one group was left untreated and one was additionally treated with systemic dexamethasone (i.p., 200 μg in 100 μL per injection) on injection days 0 and 56.
# At time indicated in FIGS. 1A and 1B (days 14, 35, 49, 63 and 71 or days 13, 19, 33, 48, 62 and 69), mice were bled, serum separated from whole blood, and stored at −20±5° C. until analysis. SEAP levels in serum were measured using an assay kit from ThermoFisher Scientific (Waltham, Mass., USA). Briefly, sera samples and positive controls were diluted in dilution buffer, incubated at 65° C. for 30 min, then cooled to room temperature, and plated into a 96-well format. Then, assay buffer (5 min) and substrate (20 min) were added and the plates were read on a luminometer (477 nm).
# This has warranted a series of further studies in which four groups of C57BL/6 female mice (6 mice each) were injected (r.o.) on days 0, 56 and 140 or 147 with 1×10^10 VG of AAV8-SEAP without any nanoparticles (two groups) or with ImmTOR™ at 100 μg of rapamycin (synthetic nanocarriers comprising rapamycin; two groups). […]
smiles,measurement,value
"C[C@@H]1C[C@H]2[C@@H]3CCC4=CC(=O)C=C[C@]4(C)[C@@]3(F)[C@@H](O)C[C@]2(C)[C@@]1(O)C(=O)CO [dexamethasone, 9α-fluoro-11β,17α,21-trihydroxy-16α-methylpregna-1,4-diene-3,20-dione]",benefit in SEAP expression vs. untreated,10-80%
